Data taken from patent US20220388979A1, “QUINOLINE DERIVATIVES AS PROTEIN KINASE INHIBITORS” (B.C.I. PHARMA, priority 2019, published 2022).

Columns and labels:
Conditions in all cases: at 50 nM, in duplicate
CSF1R = CSF1R (Homo sapiens, UniProt P07333); assay: Z'-Lyte biochemical kinase assay (SelectScreen), CSF1R
Method: (§1) A biochemical assay was performed in order to measure the protein kinase inhibition. The kinase binding assays were performed against different kinases using the SelectScreen Biochemical Kinase Profiling Service® platform (Thermo Fisher Scientific). For all kinases, the Z′-Lyte® biochemical kinase assay technology was used. Inhibitions were measured at 50 nM in duplicate for each compound and are reported in percentage.

FLT3 = target: T1, FLT3 (Homo sapiens, UniProt P36888); assay: Z'-Lyte biochemical kinase assay (SelectScreen), FLT3
T1 sequence (P36888 27-993): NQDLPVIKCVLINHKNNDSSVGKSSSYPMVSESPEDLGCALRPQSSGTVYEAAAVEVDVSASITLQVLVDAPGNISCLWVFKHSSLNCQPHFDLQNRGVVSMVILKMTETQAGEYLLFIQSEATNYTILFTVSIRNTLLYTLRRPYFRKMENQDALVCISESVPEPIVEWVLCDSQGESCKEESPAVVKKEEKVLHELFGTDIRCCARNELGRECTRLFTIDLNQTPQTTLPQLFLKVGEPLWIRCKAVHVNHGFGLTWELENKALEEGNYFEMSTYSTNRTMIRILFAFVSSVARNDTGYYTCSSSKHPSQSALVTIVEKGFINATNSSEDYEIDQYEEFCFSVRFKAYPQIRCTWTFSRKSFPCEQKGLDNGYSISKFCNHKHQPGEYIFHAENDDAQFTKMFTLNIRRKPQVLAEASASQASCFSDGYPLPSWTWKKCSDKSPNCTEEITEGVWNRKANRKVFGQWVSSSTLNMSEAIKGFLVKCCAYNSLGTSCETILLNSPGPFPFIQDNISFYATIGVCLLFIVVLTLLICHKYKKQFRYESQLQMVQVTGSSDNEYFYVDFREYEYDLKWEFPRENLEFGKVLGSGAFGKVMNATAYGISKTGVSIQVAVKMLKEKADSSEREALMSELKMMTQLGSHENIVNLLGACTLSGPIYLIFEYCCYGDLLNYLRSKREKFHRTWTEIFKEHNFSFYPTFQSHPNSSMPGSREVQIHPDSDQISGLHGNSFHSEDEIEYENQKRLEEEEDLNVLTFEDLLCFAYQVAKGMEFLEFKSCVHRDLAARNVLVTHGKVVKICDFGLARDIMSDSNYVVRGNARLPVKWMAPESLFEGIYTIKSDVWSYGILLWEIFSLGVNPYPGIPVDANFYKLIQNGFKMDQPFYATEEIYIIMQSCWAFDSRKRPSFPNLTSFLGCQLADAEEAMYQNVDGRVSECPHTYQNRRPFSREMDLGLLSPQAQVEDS
Method: as §1

Kit = Kit (Homo sapiens, UniProt P10721); assay: Z'-Lyte biochemical kinase assay (SelectScreen), Kit
Method: as §1

PDGFRA = PDGFRA (Homo sapiens, UniProt P16234); assay: Z'-Lyte biochemical kinase assay (SelectScreen), PDGFRA
Method: as §1

PDGFRB = PDGFRB (Homo sapiens, UniProt P09619); assay: Z'-Lyte biochemical kinase assay (SelectScreen), PDGFRB
Method: as §1

Sequence of CSF1R (P07333 20-972): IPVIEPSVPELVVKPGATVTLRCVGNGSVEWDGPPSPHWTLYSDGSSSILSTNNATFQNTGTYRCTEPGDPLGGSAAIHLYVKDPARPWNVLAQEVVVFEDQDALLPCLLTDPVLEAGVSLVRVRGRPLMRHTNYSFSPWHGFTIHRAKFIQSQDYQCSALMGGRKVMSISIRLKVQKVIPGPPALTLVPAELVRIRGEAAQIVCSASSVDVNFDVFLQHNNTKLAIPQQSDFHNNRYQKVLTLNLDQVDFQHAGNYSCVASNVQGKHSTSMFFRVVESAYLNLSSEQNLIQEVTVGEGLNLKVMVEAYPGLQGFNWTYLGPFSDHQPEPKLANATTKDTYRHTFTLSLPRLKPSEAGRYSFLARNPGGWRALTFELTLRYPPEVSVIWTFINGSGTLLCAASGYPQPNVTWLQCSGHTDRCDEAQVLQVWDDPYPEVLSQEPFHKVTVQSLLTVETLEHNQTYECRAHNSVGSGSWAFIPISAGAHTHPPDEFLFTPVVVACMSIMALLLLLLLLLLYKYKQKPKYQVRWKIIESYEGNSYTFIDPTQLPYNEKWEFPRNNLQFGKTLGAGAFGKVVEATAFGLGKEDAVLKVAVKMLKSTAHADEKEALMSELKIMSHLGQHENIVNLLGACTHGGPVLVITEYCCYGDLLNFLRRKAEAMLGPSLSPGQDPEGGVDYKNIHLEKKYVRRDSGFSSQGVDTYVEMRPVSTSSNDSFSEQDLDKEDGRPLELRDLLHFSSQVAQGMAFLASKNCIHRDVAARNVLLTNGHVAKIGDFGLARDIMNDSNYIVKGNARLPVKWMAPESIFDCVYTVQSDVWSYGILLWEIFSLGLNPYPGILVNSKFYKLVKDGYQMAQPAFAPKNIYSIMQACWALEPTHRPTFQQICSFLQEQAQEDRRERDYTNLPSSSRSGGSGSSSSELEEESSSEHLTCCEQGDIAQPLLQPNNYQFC
Sequence of PDGFRA (P16234 24-1089): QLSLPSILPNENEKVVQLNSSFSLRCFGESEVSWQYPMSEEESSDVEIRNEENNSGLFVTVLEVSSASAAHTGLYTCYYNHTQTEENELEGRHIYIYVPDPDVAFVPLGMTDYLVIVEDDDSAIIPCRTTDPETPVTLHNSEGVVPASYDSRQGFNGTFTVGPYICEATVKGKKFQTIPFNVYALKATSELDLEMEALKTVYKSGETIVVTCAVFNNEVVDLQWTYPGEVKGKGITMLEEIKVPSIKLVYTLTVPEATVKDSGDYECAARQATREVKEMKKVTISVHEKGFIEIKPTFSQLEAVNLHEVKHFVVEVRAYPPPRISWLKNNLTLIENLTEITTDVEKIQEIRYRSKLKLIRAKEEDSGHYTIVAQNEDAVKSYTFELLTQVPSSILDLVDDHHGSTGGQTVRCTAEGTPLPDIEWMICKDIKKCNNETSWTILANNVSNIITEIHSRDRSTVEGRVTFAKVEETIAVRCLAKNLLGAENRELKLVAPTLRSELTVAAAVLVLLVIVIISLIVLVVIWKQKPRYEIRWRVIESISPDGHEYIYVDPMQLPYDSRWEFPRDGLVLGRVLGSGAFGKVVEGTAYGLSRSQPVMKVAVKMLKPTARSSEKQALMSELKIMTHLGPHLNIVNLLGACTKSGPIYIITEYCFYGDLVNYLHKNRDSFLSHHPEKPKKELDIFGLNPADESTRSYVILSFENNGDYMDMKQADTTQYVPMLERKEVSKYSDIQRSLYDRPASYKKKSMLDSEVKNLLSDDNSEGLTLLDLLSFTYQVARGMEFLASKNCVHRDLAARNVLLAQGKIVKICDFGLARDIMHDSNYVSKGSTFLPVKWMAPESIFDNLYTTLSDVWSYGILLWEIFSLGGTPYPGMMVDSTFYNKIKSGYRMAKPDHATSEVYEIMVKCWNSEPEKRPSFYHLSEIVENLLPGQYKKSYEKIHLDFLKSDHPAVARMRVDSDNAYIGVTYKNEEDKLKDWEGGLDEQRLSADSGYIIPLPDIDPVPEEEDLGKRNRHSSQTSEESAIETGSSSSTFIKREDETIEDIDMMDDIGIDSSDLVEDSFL
Sequence of Kit (P10721 26-976): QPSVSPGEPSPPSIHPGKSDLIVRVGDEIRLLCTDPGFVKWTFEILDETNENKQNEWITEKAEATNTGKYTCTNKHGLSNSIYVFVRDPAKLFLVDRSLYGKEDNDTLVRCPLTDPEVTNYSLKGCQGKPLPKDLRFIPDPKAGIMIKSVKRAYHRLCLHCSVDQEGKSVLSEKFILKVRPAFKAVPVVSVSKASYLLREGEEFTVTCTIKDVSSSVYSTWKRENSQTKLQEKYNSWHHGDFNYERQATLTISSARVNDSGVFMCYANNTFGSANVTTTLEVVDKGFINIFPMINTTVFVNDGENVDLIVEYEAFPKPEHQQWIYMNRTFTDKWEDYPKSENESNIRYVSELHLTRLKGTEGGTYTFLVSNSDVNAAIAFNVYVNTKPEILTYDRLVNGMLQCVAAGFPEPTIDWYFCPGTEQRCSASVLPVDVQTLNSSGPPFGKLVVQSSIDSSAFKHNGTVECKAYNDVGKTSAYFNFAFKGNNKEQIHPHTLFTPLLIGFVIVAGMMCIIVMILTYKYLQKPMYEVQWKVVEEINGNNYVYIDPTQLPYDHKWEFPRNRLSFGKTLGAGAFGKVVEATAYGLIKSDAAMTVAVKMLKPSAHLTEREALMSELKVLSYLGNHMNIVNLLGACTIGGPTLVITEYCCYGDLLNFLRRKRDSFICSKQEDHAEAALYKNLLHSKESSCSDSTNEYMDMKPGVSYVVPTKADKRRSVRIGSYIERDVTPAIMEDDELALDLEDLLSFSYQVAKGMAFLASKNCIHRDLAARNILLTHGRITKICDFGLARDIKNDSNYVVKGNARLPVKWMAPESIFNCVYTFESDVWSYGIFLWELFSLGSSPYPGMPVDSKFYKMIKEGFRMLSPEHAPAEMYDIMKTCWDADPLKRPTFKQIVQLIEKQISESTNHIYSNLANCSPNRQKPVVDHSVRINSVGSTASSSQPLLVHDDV
Sequence of PDGFRB (P09619 33-1106): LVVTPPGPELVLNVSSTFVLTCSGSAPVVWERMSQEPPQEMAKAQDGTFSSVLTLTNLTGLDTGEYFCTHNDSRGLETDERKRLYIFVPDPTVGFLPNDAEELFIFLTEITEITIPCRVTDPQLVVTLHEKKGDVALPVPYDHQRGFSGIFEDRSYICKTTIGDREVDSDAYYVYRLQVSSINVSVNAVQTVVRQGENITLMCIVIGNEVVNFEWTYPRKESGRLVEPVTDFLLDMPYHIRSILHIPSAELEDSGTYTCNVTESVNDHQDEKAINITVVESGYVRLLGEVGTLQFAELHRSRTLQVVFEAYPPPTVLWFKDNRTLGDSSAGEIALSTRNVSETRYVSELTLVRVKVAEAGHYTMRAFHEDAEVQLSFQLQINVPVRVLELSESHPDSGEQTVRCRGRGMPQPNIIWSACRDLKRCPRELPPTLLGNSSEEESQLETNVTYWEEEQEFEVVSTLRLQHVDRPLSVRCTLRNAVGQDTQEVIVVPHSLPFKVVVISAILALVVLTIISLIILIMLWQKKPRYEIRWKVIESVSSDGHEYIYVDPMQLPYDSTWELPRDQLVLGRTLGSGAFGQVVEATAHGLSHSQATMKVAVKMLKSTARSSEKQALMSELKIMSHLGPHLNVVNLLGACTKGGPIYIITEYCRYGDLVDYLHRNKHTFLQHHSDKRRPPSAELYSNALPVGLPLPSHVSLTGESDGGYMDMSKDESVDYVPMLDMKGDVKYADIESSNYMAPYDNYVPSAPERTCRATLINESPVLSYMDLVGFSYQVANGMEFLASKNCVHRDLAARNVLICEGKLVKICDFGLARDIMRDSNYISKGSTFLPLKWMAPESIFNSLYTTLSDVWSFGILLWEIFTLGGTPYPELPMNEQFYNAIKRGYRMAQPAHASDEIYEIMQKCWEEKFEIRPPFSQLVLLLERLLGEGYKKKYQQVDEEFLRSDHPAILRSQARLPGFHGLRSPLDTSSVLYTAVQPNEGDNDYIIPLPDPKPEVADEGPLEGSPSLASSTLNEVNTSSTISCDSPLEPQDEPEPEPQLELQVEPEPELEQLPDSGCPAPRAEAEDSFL

| inhibition at 0.05 µM (CSF1R) [%] | inhibition at 0.05 µM (FLT3) [%] | inhibition at 0.05 µM (Kit) [%] | inhibition at 0.05 µM (PDGFRA) [%] | inhibition at 0.05 µM (PDGFRB) [%] | Structure (SMILES) |
| --- | --- | --- | --- | --- | --- |
| 96 | 8 | 2 | 2 | 6 | COc1ccc2c(Oc3cccc(C(=O)NCc4ccncc4)c3C)ccnc2c1 [Compounds 32] |
| 88 | 6 | 10 | 11 | 13 | Cc1c(Oc2ccnc3cc(Cl)ccc23)cccc1C(=O)NCc1ccncc1 [Compounds 108] |
| 71 | 6 | 7 | 18 | 27 | O=C(NCC1CCCCC1)c1cccc(Oc2ccnc3ccccc23)c1 [compound 3] |
| 85 | 14 | 20 | 16 | 22 | COc1ccccc1CNC(=O)c1cccc(Oc2ccnc3ccccc23)c1 [compound 7] |
| 71 | 18 | 11 | 17 | 24 | O=C(NCc1cccc(F)c1)c1cccc(Oc2ccnc3ccccc23)c1 [compound 10] |
| 81 | 7 | 15 | 23 | 24 | O=C(NCc1ccc(F)cc1)c1cccc(Oc2ccnc3ccccc23)c1 [compound 16] |
| 83 | -4 | 14 | 15 | 12 | O=C(NCc1cncc(F)c1)c1cccc(Oc2ccnc3ccccc23)c1 [compound 17] |
| 97 | 44 | 29 | 24 | 34 | COc1cc2nccc(Oc3cccc(C(=O)N[C@H](C)c4ccccc4)c3)c2cc1OC [compound 24] |
| 95 | 48 | 32 | 27 | 39 | COc1cc2nccc(Oc3cccc(C(=O)NCCc4ccccc4)c3)c2cc1OC [compound 25] |
| 102 | 47 | 32 | 35 | 50 | COc1ccccc1CNC(=O)c1cccc(Oc2ccnc3cc(OC)c(OC)cc23)c1 [compound 26] |
| 93 | 39 | 26 | 23 | 44 | COc1cc2nccc(Oc3cccc(C(=O)NCC4CCCCC4)c3)c2cc1OC [compound 27] |
| 93 | 2 | 17 | 21 | 28 | COc1cc2nccc(Oc3cccc(C(=O)NCc4cncc(F)c4)c3)c2cc1OC [compound 29] |
| 72 | 10 | 8 | 8 | 11 | Cc1c(Oc2ccnc3ccccc23)cccc1C(=O)NCc1ccc(C#N)cc1 [compound 30] |
| 78 | 16 | 4 | 10 | 14 | COc1ccc2c(Oc3cccc(C(=O)NCc4cccc(F)c4)c3C)ccnc2c1 [compound 33] |
| 83 | 25 | 20 | 7 | 12 | O=C(NCc1cccnc1)c1cccc(Oc2ccnc3ccccc23)c1 [compound 74] |
| 79 | 16 | 20 | -1 | 10 | O=C(NCc1ccncc1)c1cccc(Oc2ccnc3ccccc23)c1 [compound 75] |
